Data on 1 compound can be found in PMC8157322, “Gd(III)–Pt(IV) theranostic contrast agents for tandem MR imaging and chemotherapy” (Chemical Science, 2020).

The structures appear in SMILES notation.

A short description of series [1]: Relaxivity after incubation in 5 mM GSH in PBS. It counts as physicochemical. The note with it: 1.41 T, PBS with 5 mM glutathione, 37 °C. The procedure: This is possibly due to an increase in the rotational correlation time (τR) or a change in the inner sphere hydration number (q) of Gd(III). The differences in relaxivity of GP1 and GP2 compared to 1 offers the possibility of monitoring reduction of the agents by MR at both high and low field strength. To test this, GP1, GP2, and 1 were incubated in 5 mM GSH in PBS and the relaxivity was measured (see ESI ^†). The relaxivity of each converged to the same value (r1 of 4.4, 4.5, and 4.6 mM^−1 s^−1 for 1, GP1, and GP2 respectively), indicating the same Gd(III) species was formed after reduction. The significant change in r1 upon reduction of GP1 and GP2 theoretically could be used to monitor intracellular reduction by MR. However, further testing needs to be done to determine if these agents are suitable for this application.
Fig. S2 Graph of r1 of (A) GP1 measured at 1.41 T (B) GP1 measured at 7 T (C) GP2 measured at 1.41 T
(D) GP2 measured at 7 T (E) 1 measured at 1.41 T (F) 1 measured at 7 T. All measurements were taken
in PBS at 37 °C (G) 1 measured at 1.41 T with 5 mM GSH (H) GP1 measured at 1.41 T with 5 mM GSH
and (I) GP2 measured at 1.41 T with 5 mM GSH.
Table S1. r1 of GP1, GP2, and 1 in PBS with 5 mM glutathione at 37 °C
GP1 (5 mM GSH) GP2 (5 mM GSH) 1 (5 mM GSH)

A short description of series [2]: Aqueous solubility (qualitative). Format: physicochemical. Particulars: aqueous solutions / solvents.
Series [3] in a line: Stability in aqueous media monitored by HPLC-MS. Format: physicochemical. On the procedure:
(§1) To ensure both agents remain stable in aqueous media under various conditions, they were dissolved in PBS, two types of cell culture media (MEM and RPMI-1640), pH 5 H2O, and porcine live esterase (PLE) in PBS and monitored over time by HPLC-MS. […]
(§2) Stability of GP1 and GP2 in various aqueous media. Aliquots of GP1 and GP2 were prepared from a stock with known mass checked by ICP-MS. An aliquot of each was dissolved in H2O and analyzed by HPLC-MS using an Atlantis C18 column (4.6 × 250 mm, 5 μm) and the following method: MeCN held at 0% for 3 min followed by a 15 min ramp to 100% MeCN (GP1 retention time: 10.9 min, GP2 retention time: 11.6 min). Aliquots of both were additionally dissolved in PBS, MEM, RPMI-1640, pH 5 H2O, PBS with 10 units/mL porcine liver esterase, 5 mM glutathione, and 5 mM sodium ascorbate, incubated in a shaker at 37 °C, and were analyzed by HPLC-MS at different time points using the same method. At each time point, the area of the peak of GP1 or GP2 was determined by integration and compared to the area of the peaks in […]

Series [4] has as its system porcine liver esterase (PLE). Briefly: Stability in porcine liver esterase in PBS (HPLC-MS). Format: in vitro ADME. Particulars: PBS with 10 units/mL porcine liver esterase, 37 °C. The procedure:
as §1, §2

A short description of series [5]: Reduction by 5 mM GSH / 5 mM ascorbate at 37 °C (HPLC-MS). Format: physicochemical. The procedure:
Under reducing conditions both agents rapidly converted to a monomeric Gd(III) complex and a Pt(II) drug. Each agent was incubated with 5 mM GSH and 5 mM ascorbate at 37 °C to mimic intracellular conditions. […] This is not surprising, as ascorbate is a weaker reducing agent. […]
solution. These capillaries were imaged using a Bruker PharmaScan 7 T MR imaging spectrometer (Bruker BioSpin, Billerica, MA, USA). T1 relaxation times were measured using a rapid-acquisition rapid-echo (RARE-VTR) T1-map pulse sequence with static TE (10 ms) and […]
Stability of GP1 and GP2 in various aqueous media. […] An aliquot of each was dissolved in H2O and analyzed by HPLC-MS using an Atlantis C18 column (4.6 × 250 mm, 5 μm) and the following method: MeCN held at 0% for 3 min followed by a 15 min ramp to 100% MeCN (GP1 retention time: 10.9 min, GP2 retention time: 11.6 min). Aliquots of both were additionally dissolved in PBS, MEM, RPMI-1640, pH 5 H2O, PBS with 10 units/mL porcine liver esterase, 5 mM glutathione, and 5 mM sodium ascorbate, incubated in a shaker at 37 °C, and were analyzed by HPLC-MS at different time points using the same method. At each time point, the area of the peak of GP1 or GP2 was determined by integration and compared to the area of the peaks in H2O. […]

In series [6] the test system is HeLa cells. Briefly: MR imaging of cell pellets at 7 T. Format: cell-based. The note with it: 6 h incubation, cisplatin 15 μM, 1 100 μM, GP1 60 μM, GP2 250 μM.

Take `[NH2][Pt]([NH2])([OH])([Cl])([Cl])[O]C(=O)CCCCCN1CCN2CCN3CCN(CC1)CC(=O)[O][Gd]([O]C(=O)C2)[O]C(=O)C3` [GP1]: the “r1 with 5 mM GSH” value in series [1] stood at 4.5 mM⁻¹ s⁻¹. For the same compound, the Solubility result in series [2] was “readily soluble in aqueous solutions”. In series [3] (MEM, 37 °C, at 48 hours), the “Agent intact in MEM” value is on record as at least 92%. The “Stability in PBS” value in series [3] (PBS, 37 °C, over 48 hours) was “completely stable”. Further, in series [3] (RPMI-1640 (0.003 mM GSH), 37 °C, within 48 hours), the “Agent reduced to Pt(II) in RPMI-1640” value was 33%. Further, the “Agent intact in RPMI-1640” value in series [3] (RPMI-1640, 37 °C, at 6 hours) is given as at least 96%. In addition, the “Stability in pH 5 H2O” value in series [3] (pH 5 H2O, 37 °C, over 48 hours) is “completely stable”. Further, the “Decrease in stability in presence of PLE” value in series [4] is recorded as about 10%. Moreover, the “Reduction by GSH” value in series [5] (5 mM GSH, in less than an hour) is at least 94%. The Reduction by ascorbate result in series [5] (5 mM ascorbate, compared to GSH) is recorded as “reduced by ascorbate, albeit it at a much slower rate”. In series [6], the “T1 of cell pellet” value came out at 1557 ± 17 ms and the “Δ R1 (increase in R1 vs untreated control)” value turned out to be 48%.
